In patent publication US20210386665A1, “INHALATION POWDER MEDICINE, EVALUATION METHOD THEREOF, AND USE THEREOF” (MEIJO UNIVERSITY EDUCATIONAL FOUNDATION, priority 2018, published 2021):

experiment: Anti-hygroscopic and hygroscopic property by dynamic vapor sorption (DVS); type: physicochemical; details: raw powders; DVS 37° C., 50 to 95% RH
Experimental: For each SFD preparation prepared in Example 1 and each raw powder (Leu, Man, Tre, FlNa) in compositions, using a Dynamic Vapor Sorption measuring instrument (DVS: Dynamic Vapor Sorption; DVS advantage, Surface Measurement Systems), anti-hygroscopic property and hygroscopic growth from inhalation to the respiratory tract and deep lungs in high humidity were evaluated.
By a DVS, the mass change of a sample filled on one side of the balance-type measuring unit due to the adsorption and desorption of water in a set temperature and humidity environment can be monitored on a second scale. Regarding the setting of conditions for moisture absorption growth evaluation, to reproduce the temperature and humidity environment changes until the powder fine particles reach the deep lungs, the environment before inhalation was set to “temperature: 37° C., relative humidity (RH): 50% (absolute humidity: […])” and the lung environment after inhalation was set to “temperature: 37° C., 95% RH (absolute humidity: 41.62 g/m^3)”.

SMILES | mass change rate
CC(C)C[C@H](N)C(=O)O [Leu, L-leucine] | about 0.08%
OC[C@@H](O)[C@@H](O)[C@H](O)[C@H](O)CO [Man, D-(−)-mannitol] | ~0.29%
OC[C@H]1O[C@H](O[C@H]2O[C@H](CO)[C@@H](O)[C@H](O)[C@H]2O)[C@H](O)[C@@H](O)[C@@H]1O [Tre, D-(+)-trehalose] | ~22%
